The numbers were not newly measured in paper PMC7961821, “Comparing Ligninolytic Capabilities of Bacterial and Fungal Dye-Decolorizing Peroxidases and Class-II Peroxidase-Catalases” (International Journal of Molecular Sciences, 2021), which cites them from elsewhere.

The target of one data set is T1, PchLiPA (Phanerodontia chrysosporium, UniProt P06181).
T1 construct: gene LPOA; heme enzyme
As to the kind of experiment: steady-state kinetics, absorbance loss at […] nm. The note with it: read-out: RB19; 1 mM H2O2, optimal pH (not given for RB19), 25 °C. In kind it is biochemical.

Another data set deals with T2, PerVPL (Pleurotus eryngii, UniProt O94753).
T2 construct: gene vpl2; heme enzyme
T2 sequence (O94753 31-361): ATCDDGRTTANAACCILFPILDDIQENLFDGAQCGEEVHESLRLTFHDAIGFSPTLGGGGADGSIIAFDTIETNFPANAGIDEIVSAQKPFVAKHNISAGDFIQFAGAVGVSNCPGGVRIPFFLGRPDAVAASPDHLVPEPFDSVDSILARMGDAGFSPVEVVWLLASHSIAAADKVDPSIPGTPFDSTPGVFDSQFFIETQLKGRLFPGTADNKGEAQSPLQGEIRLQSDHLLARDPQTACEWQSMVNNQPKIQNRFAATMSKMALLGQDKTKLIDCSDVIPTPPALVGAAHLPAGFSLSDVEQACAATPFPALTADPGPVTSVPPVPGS
Put plainly: steady-state kinetics, absorbance loss at […] nm. The data set is classed as biochemical. The note with it: read-out: RB19; 1 mM H2O2, optimal pH (not given for RB19), 25 °C.

T1 sequence (P06181 29-372): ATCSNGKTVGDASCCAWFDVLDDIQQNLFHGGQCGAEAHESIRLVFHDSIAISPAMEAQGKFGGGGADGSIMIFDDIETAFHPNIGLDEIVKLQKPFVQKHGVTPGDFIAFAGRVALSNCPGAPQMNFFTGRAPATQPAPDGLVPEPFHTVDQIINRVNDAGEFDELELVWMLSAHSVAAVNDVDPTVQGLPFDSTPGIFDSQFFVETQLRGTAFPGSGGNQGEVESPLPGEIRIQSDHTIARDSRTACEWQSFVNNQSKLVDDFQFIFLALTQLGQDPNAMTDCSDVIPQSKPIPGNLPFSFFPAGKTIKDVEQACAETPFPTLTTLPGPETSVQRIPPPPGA

For the molecule `Nc1c(S(=O)(=O)O)cc(Nc2cccc(S(=O)(=O)CCOS(=O)(=O)O)c2)c2c1C(=O)c1ccccc1C2=O` [RB19], the Km was 34 ± 13 µM at PchLiPA and 33 ± 8 µM at PerVPL.
